Records with an inconclusive call do not appear.
What follows are compounds tested on U2OS PGC1a acetylation AlphaLISA, overnight (assay: PGC1a acetylation increase, cellular AlphaLISA – cell-based, cherry-picked samples, set 6, dose response (AID 720513);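 note: cells made to overexpress flag tagged PGC1a plus GCN5 acetyltransferase by viral infection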).

Point of comparison: `Fc1ccc(CN(Cc2ccccc2)C(c2cccs2)c2nnnn2C2CCCCC2)cc1` (configuration not stated), AC40 12.7 µM. Against it:
- CS(=O)(=O)N(CC(=O)N1CCN(c2ccccc2)CC1)c1cccc(Br)c1 — within 1.5-fold, 17.8 µM
- O=C(CSc1nc2c(sc3ccccc32)c(=O)n1CCc1ccccc1)NCc1ccco1 — within 1.5-fold, 18.1 µM
- Cc1ccc(CN(CC(O)COc2cccc3[nH]cc(C)c23)C(C)(C)C)cc1 (configuration not stated) — 5.1-fold lower, 2.49 µM
- COc1cccc(N(CC(=O)NCc2cccnc2)S(C)(=O)=O)c1 — within 1.5-fold, 14.2 µM
- CC(C)CCNc1nc(N2CCCC2)c2c(c1C#N)CCN(C)C2 — 3.2-fold lower, 3.92 µM
- COc1ccc(OC(=O)N(C)C[C@H]2OCc3ccccc3-c3c(n(C)c4ccccc34)C(=O)N([C@H](C)CO)C[C@H]2C)cc1 — 2.1-fold lower, 6.06 µM
- CCOC(=O)C1=C[C@@H](C(C)(C)C)N(S(=O)(=O)c2ccc(C)cc2)[C@H]1c1cccc2ccccc12 — 23-fold lower, 0.543 µM
- CCOC(=O)c1ccc(NC(=O)Nc2ccc(F)cc2)cc1 — within 1.5-fold, 16.2 µM
- CC(=O)c1ccc(OCC(=O)OCC(=O)Nc2sccc2C(N)=O)cc1 — 2-fold lower, 6.46 µM
- COc1ccccc1NC(=O)c1ccc(NC(=O)CNC(=O)c2ccc(OC)c(OC)c2)cc1 — within 1.5-fold, 15.7 µM
- O=C(COc1ccc([N+](=O)[O-])cc1)Nc1ccc(C(=O)NCc2cccnc2)cc1 — 45-fold lower, 0.283 µM
- COc1ccc(C2CC(=O)N(C)c3ccccc3S2)cc1 (configuration not stated) — 1.9-fold lower, 6.61 µM
- CCOc1ccc(NC2c3ccccc3C(=O)N2Cc2ccc3c(c2)OCO3)cc1 (configuration not stated) — within 1.5-fold, 16.3 µM
- CCOC(=O)C1=C[C@@H](C(C)(C)C)N(S(=O)(=O)c2ccc(C)cc2)[C@H]1c1ccccc1 — 3.5-fold lower, 3.62 µM
- CCOc1ccccc1NC(=O)CSc1cn[nH]n1 — 5.1-fold lower, 2.47 µM
- Cc1ccccc1NC(=O)c1nc(S(C)(=O)=O)ncc1Cl — 13-fold lower, 0.992 µM
- Cc1ccc(C(=O)c2c[nH]c(C(=O)NCc3cccnc3)c2)cc1 — 4.8-fold lower, 2.67 µM
- O=C(CCc1nc2ccccc2c(=O)[nH]1)Nc1ccc(N2CCCCC2)cc1 — 2.9-fold lower, 4.4 µM
- COC(=O)c1ccc(NC(=O)C23CC4CC(C2)CC(n2cnc(Cl)n2)(C4)C3)cc1 — 7-fold lower, 1.82 µM
- COc1ccc(CCNC(=O)COc2ccc(S(=O)(=O)N3CCCC3)cc2)cc1 — 1.5-fold higher, 19.3 µM
- Cc1cccc2cc(CN(Cc3ccc(F)cc3)Cc3nnnn3C3CCCC3)c(=O)[nH]c12 — 3.1-fold lower, 4.14 µM
- CCCOc1ccc(C(=O)Nc2cccnc2)cc1 — 5-fold lower, 2.52 µM
- CC(=O)Nc1cc(C(=O)OCc2cccc([N+](=O)[O-])c2)ccc1C — within 1.5-fold, 10.4 µM
- CCOC(=O)C1(N(CC)CC)Sc2cc(C)ccc2NC1=O (configuration not stated) — 3.9-fold lower, 3.28 µM
- Cc1ccc(CNC(=O)C2CC(c3ccc([N+](=O)[O-])cc3)=NO2)cc1 (configuration not stated) — 3.2-fold lower, 4 µM
- CC(C)(C)n1nnnc1CN(Cc1ccc(F)cc1)Cc1ccco1 — 7.3-fold lower, 1.73 µM
- O=C(NCCC1CCCCN1S(=O)(=O)c1cccs1)C(=O)Nc1ccc(F)cc1F (configuration not stated) — within 1.5-fold, 9.6 µM
- CSc1nn(-c2ccc(C(=O)OC(C(=O)NC(N)=O)C(C)C)cc2)c(=S)s1 (configuration not stated) — 2.9-fold lower, 4.42 µM
- O=C1Nc2cc(S(=O)(=O)N3CCCC3)ccc2N2CCCC12 (configuration not stated) — within 1.5-fold, 16.6 µM
- Cc1nn2c(NCCCN3CCOCC3)c3c(nc2c1-c1ccccc1)CCC3 — 3.4-fold lower, 3.72 µM
- CC1CCN(S(=O)(=O)c2ccc(NC(=O)c3ccccc3F)cc2)CC1 — within 1.5-fold, 15.3 µM
- CC(=O)Nc1ccc(NC(=O)CN(c2cc(Cl)ccc2Cl)S(C)(=O)=O)cc1 — 11-fold lower, 1.14 µM
- O=C(NCCCN1CCOCC1)c1ccccc1N1C(=O)[C@@H]2Cc3c([nH]c4ccccc34)C(c3ccccc3)N2C1=O (some centres not stated) — 1.9-fold lower, 6.79 µM
- C[C@H]1CN([C@@H](C)CO)S(=O)(=O)c2ccc(C#CCN(C)C)cc2O[C@@H]1CN(C)Cc1ccc2c(c1)OCO2 — 2.7-fold lower, 4.76 µM
- O=C(Nc1ccccc1-c1ccccc1)NC1CC2CCCC(C1)N2Cc1ccc(F)cc1 (configuration not stated) — within 1.5-fold, 10.5 µM
- Cc1cc(S(=O)(=O)c2ccc([N+](=O)[O-])cn2)ccc1Br — 30-fold lower, 0.421 µM
- CC1CC1C(=O)OCC(=O)NCc1ccc(Cl)cc1 (configuration not stated) — within 1.5-fold, 18.2 µM
- Cc1cc2cc3c(cc2nc1SCC(=O)OC(C)C)OCCO3 — within 1.5-fold, 11.5 µM
- COC(=O)c1ccc(NC(=O)c2cccnc2)cc1 — 6.8-fold lower, 1.86 µM
- CC(C)(C)c1ccc(NC(=O)N2CCCN(c3ccc([N+](=O)[O-])cn3)CC2)cc1 — 51-fold lower, 0.25 µM
- COc1ccc(NC(=O)N2CCN(c3ccc([N+](=O)[O-])cc3)CC2)cc1 — 8.4-fold lower, 1.52 µM
